This passage reports melting point and IC50 results from patent US20090156646A1, “PYRIDYLPHENOL COMPOUND AND USE THEREOF” (TAKEDA PHARMACEUTICAL COMPANY LIMITED, priority 2005, published 2009).

Series [1] deals with T1, human metastin receptor hOT7T175 (Homo sapiens, UniProt Q969F8, L364H).
T1 construct: encoding the entire length of human metastin receptor hOT7T175; expressed in transfected cells; host or cells: CHO/dhFr- cells (ATCC #CRL-9096) stably transfected with pAKKO-hOT7T175; clone h175-16 was used as whole cells for FLIPR
Kind of series: binding inhibiting activity: 125I-metastin (40-54) binding to cell membrane fraction of h175 KB34 cells. The note with it: room temperature 60 minutes, read-out: binding inhibiting activity, represented by the IC50 value. The method in brief: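 The assay buffer (pH 7.4 Tris with magnesium acetate, EGTA and a protease-inhibitor cocktail) was used either plain or supplemented with 1 mg/ml BSA. The radioligand was 125I-labelled human metastin (40-54). The receptor source was a 250-fold diluted membrane fraction of the stable CHO/dhfr− line h175 KB34.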

Molecules are shown by their SMILES.

T1 sequence (Q969F8 whole entry L364H): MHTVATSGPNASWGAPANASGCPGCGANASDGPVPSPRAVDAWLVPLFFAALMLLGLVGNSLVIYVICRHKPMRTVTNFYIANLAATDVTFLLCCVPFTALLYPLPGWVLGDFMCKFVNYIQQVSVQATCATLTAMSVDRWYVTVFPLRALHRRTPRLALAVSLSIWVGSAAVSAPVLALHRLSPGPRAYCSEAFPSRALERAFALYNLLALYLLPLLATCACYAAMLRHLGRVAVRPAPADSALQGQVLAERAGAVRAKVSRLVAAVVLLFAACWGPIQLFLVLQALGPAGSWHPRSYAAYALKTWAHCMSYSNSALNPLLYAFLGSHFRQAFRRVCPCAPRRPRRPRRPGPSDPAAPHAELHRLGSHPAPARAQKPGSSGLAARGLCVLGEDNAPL

As to `CC(C)(CN)CNC(=O)c1cccc(-c2cc(-c3ccc(F)cc3O)nc(NC(=O)c3cccs3)c2C#N)c1.Cl` [Example 80, N-[4-(3-{[(3-amino-2,2-dimethylpropyl)amino]carbonyl}phenyl)-3-cyano-6-(4-fluoro-2-hydroxyphenyl)pyridin-2-yl]thiophene-2-carboxamide hydrochloride], the melting point was in the range of 265 to 268 °C. Further, in series [1], the IC50 was at most 10 µM.

Molecule `Cl.N#Cc1c(-c2cccc(C(=O)NCCN)c2)cc(-c2ccc(F)cc2O)nc1NC(=O)c1cccs1` [Example 81, N-[4-(3-{[(2-aminoethyl)amino]carbonyl}phenyl)-3-cyano-6-(4-fluoro-2-hydroxyphenyl)pyridin-2-yl]thiophene-2-carboxamide hydrochloride] had a melting point of 228 to 229 °C. Further, in series [1], the IC50 is at most 10 µM.

Take `Cl.N#Cc1c(-c2cccc(C(=O)NCCCn3ccnc3)c2)cc(-c2ccc(Cl)cc2O)nc1NC(=O)c1ccco1` [Example 83, N-{6-(4-chloro-2-hydroxyphenyl)-3-cyano-4-[3-({[3-(1H-imidazol-1-yl)propyl]amino}carbonyl)phenyl]pyridin-2-yl}-2-furamide hydrochloride]: the melting point was 182 to 184 °C. Moreover, the IC50 in series [1] was at most 10 µM.

Take `Cl.N#Cc1c(-c2cccc(C(=O)NCC3CCCCN3)c2)cc(-c2ccc(Cl)cc2O)nc1NC(=O)c1ccco1` (stereo not drawn) [Example 84, N-[6-(4-chloro-2-hydroxyphenyl)-3-cyano-4-(3-{[(piperidin-2-ylmethyl)amino]carbonyl}phenyl)pyridin-2-yl]-2-furamide hydrochloride]: the melting point is 222 to 226 °C. Also, the IC50 in series [1] is at most 10 µM.

Take `CC(C)(CN)CNC(=O)c1cccc(-c2cc(-c3ccc(Cl)cc3O)nc(NC(=O)c3ccco3)c2C#N)c1.Cl` [Example 85, N-[4-(3-{[(3-amino-2,2-dimethylpropyl)amino]carbonyl}phenyl)-6-(4-chloro-2-hydroxyphenyl)-3-cyanopyridin-2-yl]-2-furamide hydrochloride]: the melting point lay in the range of 241 to 244 °C. Also, the IC50 in series [1] was at most 10 µM.

On to `Cl.N#Cc1c(-c2cccc(C(=O)NCCN)c2)cc(-c2ccc(Cl)cc2O)nc1NC(=O)c1ccco1` [Example 86, N-[4-(3-{[(2-aminoethyl)amino]carbonyl}phenyl)-6-(4-chloro-2-hydroxyphenyl)-3-cyanopyridin-2-yl]-2-furamide hydrochloride], for which the melting point lay in the range of 252 to 255 °C. Moreover, in series [1], the IC50 is at most 10 µM.

`C[C@@H](N)C(=O)Nc1cccc(-c2cc(-c3ccc(Cl)cc3O)nc(NC(=O)c3ccco3)c2C#N)c1.Cl` [Example 237, N-[4-[3-(alanylamino)phenyl]-6-(4-chloro-2-hydroxyphenyl)-3-cyanopyridin-2-yl]-2-furamide hydrochloride] registered a melting point of 210 to 216 °C. Also, the IC50 in series [1] is at most 10 µM.

As for `CC(N)CC(=O)Nc1cccc(-c2cc(-c3ccc(Cl)cc3O)nc(NC(=O)c3ccco3)c2C#N)c1.Cl` (stereo not drawn) [Example 238, N-[4-{3-[(3-aminobutanoyl)amino]phenyl}-6-(4-chloro-2-hydroxyphenyl)-3-cyanopyridin-2-yl]-2-furamide hydrochloride], the melting point lay within 206 to 214 °C. Also, the IC50 in series [1] was at most 10 µM.

`Cl.N#Cc1c(-c2cccc(NC(=O)Cn3ccnc3)c2)cc(-c2ccc(Cl)cc2O)nc1NC(=O)c1ccco1` [Example 239, N-(6-(4-chloro-2-hydroxyphenyl)-3-cyano-4-{3-[(1H-imidazole-1-ylacetyl)amino]phenyl}pyridin-2-yl)-2-furamide hydrochloride] gave a melting point of 188 to 194 °C. Also, in series [1], the IC50 was at most 10 µM.

In turn, `C[C@H](N)C(=O)Nc1cccc(-c2cc(-c3ccc(Cl)cc3O)nc(NC(=O)c3ccco3)c2C#N)c1.Cl` [Example 240, N-[4-[3-(L-alanylamino)phenyl]-6-(4-chloro-2-hydroxyphenyl)-3-cyanopyridin-2-yl]-2-furamide hydrochloride] had a melting point of 207 to 210 °C. Besides, the IC50 in series [1] is at most 10 µM.

In turn, `Cl.N#Cc1c(-c2cccc(NC(=O)C3CCNC3)c2)cc(-c2ccc(Cl)cc2O)nc1NC(=O)c1ccco1` (stereo not drawn) [Example 241, N-{3-[6-(4-chloro-2-hydroxyphenyl)-3-cyano-2-(2-furoylamino)pyridin-4-yl]phenyl}pyrrolidine-3-carboxamide hydrochloride] had a melting point of 226 to 235 °C. Further, the IC50 in series [1] is at most 10 µM.

Turning to `Cl.N#Cc1c(-c2cccc(NC(=O)CCCn3ccnc3)c2)cc(-c2ccc(Cl)cc2O)nc1NC(=O)c1ccco1` [Example 242, N-[6-(4-chloro-2-hydroxyphenyl)-3-cyano-4-(3-{[4-(1H-imidazole-1-yl)butanoyl]amino}phenyl)pyridin-2-yl]-2-furamide hydrochloride], the melting point is 166 to 170 °C. For the same molecule, the 50% inhibitory concentration (IC50) in series [1] was at most 10 µM.

`COc1ccccc1C(=O)Nc1nc(-c2ccc(F)cc2O)cc(-c2cccc(C(=O)NCCN)c2)c1C#N.Cl` [Example 244, N-[4-(3-{[(2-aminoethyl)amino]carbonyl}phenyl)-3-cyano-6-(4-fluoro-2-hydroxyphenyl)pyridin-2-yl]-2-methoxybenzamide hydrochloride] gave a melting point of 227 to 229 °C. The IC50 in series [1] was at most 10 µM.

`COc1ccccc1C(=O)Nc1nc(-c2ccc(F)cc2O)cc(-c2cccc(C(=O)NCCCn3ccnc3)c2)c1C#N.Cl` [Example 245, N-{3-cyano-6-(4-fluoro-2-hydroxyphenyl)-4-[3-({[3-(1H-imidazol-1-yl)propyl]amino}carbonyl)phenyl]pyridin-2-yl}-2-methoxybenzamide hydrochloride] gave a melting point of 234 to 235 °C. Moreover, in series [1], the IC50 was at most 10 µM.

The molecule `COc1ccccc1C(=O)Nc1nc(-c2ccc(F)cc2O)cc(-c2cccc(C(=O)NCC(C)(C)CN)c2)c1C#N.Cl` [Example 246, N-[4-(3-{[(3-amino-2,2-dimethylpropyl)amino]carbonyl}phenyl)-3-cyano-6-(4-fluoro-2-hydroxyphenyl)pyridin-2-yl]-2-methoxybenzamide hydrochloride] had a melting point of 244 to 246 °C. Further, the IC50 in series [1] is at most 10 µM.

As to `COc1ccccc1C(=O)Nc1nc(-c2ccc(F)cc2O)cc(-c2cccc(NC(=O)CCN)c2)c1C#N.Cl` [Example 247, N-[4-[3-(β-alanylamino)phenyl]-3-cyano-6-(4-fluoro-2-hydroxyphenyl)pyridin-2-yl]-2-methoxybenzamide hydrochloride], the melting point is 232 to 233 °C. Moreover, the IC50 in series [1] was at most 10 µM.

On to `Cl.N#Cc1c(-c2cccc(C(=O)NCCN)c2)cc(-c2ccc(Cl)cc2O)nc1NC(=O)c1nccs1` [Example 249, N-[4-(3-{[(2-aminoethyl)amino]carbonyl}phenyl)-6-(4-chloro-2-hydroxyphenyl)-3-cyanopyridin-2-yl]-1,3-thiazole-2-carboxamide hydrochloride], for which the melting point fell in the range of 242 to 244 °C. In series [1], the IC50 is at most 10 µM.

Turning to `Cl.N#Cc1c(-c2cccc(C(=O)NCCCn3ccnc3)c2)cc(-c2ccc(Cl)cc2O)nc1NC(=O)c1nccs1` [Example 250, N-{6-(4-chloro-2-hydroxyphenyl)-3-cyano-4-[3-({[3-(1H-imidazol-1-yl)propyl]amino}carbonyl)phenyl]pyridin-2-yl}-1,3-thiazole-2-carboxamide hydrochloride], the melting point lay in the range of 208 to 212 °C. The IC50 in series [1] is at most 10 µM.

As for `COc1ccc(C(=O)Nc2nc(-c3ccc(Cl)cc3O)cc(-c3cccc(NC(=O)CCN)c3)c2C#N)cc1.Cl` [Example 252, N-[4-[3-(β-alanylamino)phenyl]-6-(4-chloro-2-hydroxyphenyl)-3-cyanopyridin-2-yl]-4-methoxybenzamide hydrochloride], the melting point was 193 to 197 °C. Further, the IC50 in series [1] was at most 10 µM.

Consider `Cl.N#Cc1c(-c2cccc(NC(=O)C(N)c3ccccc3)c2)cc(-c2ccc(F)cc2O)nc1NC(=O)c1ccco1` (stereo not drawn) [Example 258, N-[4-(3-{[amino(phenyl)acetyl]amino}phenyl)-3-cyano-6-(4-fluoro-2-hydroxyphenyl)pyridin-2-yl]-2-furamide hydrochloride], for which the melting point was in the range of 224 to 225 °C. For the same molecule, the IC50 in series [1] was at most 10 µM.

For `Cl.N#Cc1c(-c2cccc(NC(=O)CN3CCCC3)c2)cc(-c2ccc(F)cc2O)nc1NC(=O)c1ccco1` [Example 259, N-(3-cyano-6-(4-fluoro-2-hydroxyphenyl)-4-{3-[(pyrrolidin-1-ylacetyl)amino]phenyl}pyridin-2-yl)-2-furamide hydrochloride], the melting point was in the range of 203 to 205 °C. Also, the IC50 in series [1] is at most 10 µM.

In the case of `Cl.N#Cc1c(-c2cccc(NC(=O)[C@H](N)Cc3ccccc3)c2)cc(-c2ccc(F)cc2O)nc1NC(=O)c1ccco1` [Example 263, N-{3-[3-cyano-6-(4-fluoro-2-hydroxyphenyl)-2-(2-furoylamino)pyridin-4-yl]phenyl}-D-phenylalaninamide hydrochloride], the melting point lay in the range of 186 to 188 °C. The IC50 in series [1] is at most 10 µM.

`CCC(N)CC(=O)Nc1cccc(-c2cc(-c3ccc(F)cc3O)nc(NC(=O)c3ccco3)c2C#N)c1.Cl` (stereo not drawn) [Example 264, N-[4-{3-[(3-aminopentanoyl)amino]phenyl}-3-cyano-6-(4-fluoro-2-hydroxyphenyl)pyridin-2-yl]-2-furamide hydrochloride] had a melting point of 212 to 214 °C. In addition, in series [1], the IC50 was at most 10 µM.

Molecule `CCCC(N)CC(=O)Nc1cccc(-c2cc(-c3ccc(F)cc3O)nc(NC(=O)c3ccco3)c2C#N)c1.Cl` (stereo not drawn) [Example 265, N-[4-{3-[(3-aminohexanoyl)amino]phenyl}-3-cyano-6-(4-fluoro-2-hydroxyphenyl)pyridin-2-yl]-2-furamide hydrochloride] registered a melting point of 214 to 217 °C. For the same molecule, the IC50 in series [1] is at most 10 µM.
